Tests used:
Type in all cases: cell-based
S. carnosus ATCC 51365 = experiment: Radial diffusion assay; settings: up-concentrated S. cerevisiae supernatants
Protocol: (§1) The supernatants described above in Example 10 were analyzed in a radial diffusion assay following a previously published protocol for detection of antimicrobial activity (Lehrer et al. (1991), Ultra sensitive assays for endogenous antimicrobial polypeptides, J Immunol Methods 137: 167-173). Target bacteria (10^6 colony forming units (CFU)) were added to 10 ml of underlay agarose (1% low electro-endosmosis agarose, 0.03% Trypticase soy broth, 10 mM sodium phosphate, pH 7.4, 37 degrees Celsius). Suspension was solidified on an INTEGRID Petri Dish (Becton Dickinson Labware, NJ). A 3 mm Gel Puncher was used to make holes in the underlay agarose (Amersham Pharmacia Biotech, Sweden). Samples were added to the holes and incubated at 37 degrees Celsius, 3 hours. An overlay was poured on top and the plate was incubated overnight (LB media, 7.5% Agar). Antimicrobial activity was seen as bacterial clearing zones around the wells. Living cells was counterstained by adding 10 ml, 0.2 mM MTT (3-(4,5-Dimethylthiazol-2-yl)-2,5-diphenyltetrazolium bromide Thiazolyl blue). All standard protocols has been described elsewhere (Sambrook, Fritsch, and Maniatis, 1989).
(§2) The results in Table 2 show zones of inhibition of up-concentrated samples against three ATCC strains.

B. subtilis ATCC 6633 = experiment: Radial diffusion assay; settings: up-concentrated S. cerevisiae supernatants
Protocol: as §1, §2

M. luteus ATCC 9341 = experiment: Radial diffusion assay; settings: up-concentrated S. cerevisiae supernatants
Protocol: as §1, §2

[1] = test system: Staphylococcus aureus, ATCC 29213 (MSSA); experiment: MIC microdilution assay (NCCLS/CLSI); settings: tested 0.06-32 μg/ml
Protocol: (§3) Purified Oystrisin and Piceasin were evaluated for antimicrobial activity in a microdillution assay. The Minimal Inhibitory Concentration (MIC) was determined following the NCCLS/CLSI guidelines from CLSI (Clinical and Laboratory Standards Institute).
(§4) Oystrisin and Piceasin were tested at the following concentrations: 32; 16; 8; 4; 2; 1; 0.50; 0.25; 0.13; and 0.06 μg/ml.

[2] = test system: Streptococcus pneumoniae, ATCC 49619; experiment: MIC microdilution assay (NCCLS/CLSI); settings: tested 0.06-32 μg/ml
Protocol: as §3, §4

[3] = test system: Staphylococcus aureus, ATCC 43300 (MRSA); experiment: MIC microdilution assay (NCCLS/CLSI); settings: tested 0.06-32 μg/ml
Protocol: as §3, §4

[4] = test system: Staphylococcus epidermidis, ATCC 12228; experiment: MIC microdilution assay (NCCLS/CLSI); settings: tested 0.06-32 μg/ml
Protocol: as §3, §4

[5] = test system: Staphylococcus carnosus, ATCC 51365; experiment: MIC microdilution assay (NCCLS/CLSI); settings: tested 0.06-32 μg/ml
Protocol: as §3, §4

[6] = test system: Streptococcus pyogenes, ATCC 12344; experiment: MIC microdilution assay (NCCLS/CLSI); settings: tested 0.06-32 μg/ml
Protocol: as §3, §4

| Substance | zones of inhibition (S. carnosus ATCC 51365) [mm] | zones of inhibition (B. subtilis ATCC 6633) [mm] | zones of inhibition (M. luteus ATCC 9341) [mm] | MIC [1] [µg/mL] | MIC [2] [µg/mL] | MIC [3] [µg/mL] | MIC [4] [µg/mL] | MIC [5] [µg/mL] | MIC [6] [µg/mL] |
| --- | --- | --- | --- | --- | --- | --- | --- | --- | --- |
| Gibbosin: the polypeptide shown as amino acids 1 to 38 of SEQ ID NO:6; Mesobuthus gibbosus defensin (MKTIVLLFVLALVFCTLEMGMVEAGFGCPFNQGRCHRH; listed as Mesobuthus gibbosus) | 9 | 8 | 6 | – | – | – | – | – | – |
| Oystrisin: the polypeptide shown as amino acids 1 to 43 of SEQ ID NO:8; Crassostrea gigas defensin (MKVFVLLTLAVLLMVSADMAFAGFGCPGNQLKCNNHCKSISCR; Crassostrea gigas) | – | – | – | 32 | 0.13 | 16 | 32 | 0.5 | 0.03 |
| Piceasin: the polypeptide shown as amino acids 1 to 40 of SEQ ID NO:2; Picea glauca defensin (MKFTISIIAALAFFAQGIVAAPAPIPEAAAVAAPEAEPKA; listed as Picea glauca) | – | – | – | >32 | 16 | >32 | >32 | 16 | 1 |
| Virgisin-1: the polypeptide shown as amino acids 1 to 40 of SEQ ID NO:4; Crassostrea virginica defensin (MKVFVLLTIAVMLMVSADVALAGFGCPLNRYQCHSHCQSI; listed as Crassostrea virginica) | 7 | 6 | 5 | – | – | – | – | – | – |
| Virgisin-2: the polypeptide shown as amino acids 1 to 42 of SEQ ID NO:10; Crassostrea virginica defensin (MKVFVLLTIAVMLLVSADVATADNGCPRRPRICHNRCIYKGR; listed as Crassostrea virginica) | 8 | 5 | 0 | – | – | – | – | – | – |
